Results reported in US20240391928A1, “COMPOSITIONS FOR THE TREATMENT OF FOOD AND CHEMICAL ADDICTION AND METHODS OF MAKING AND USING SAME” (Duke University, priority 2021, published 2024).
“And” between values parts separate entries of the source, which are not always exact repeats. Identical values can stand only once.

Tests used:
[1] = molecular target: T1, hGHSR1a^WT-RLucII / mVenus-β-arr2 (Homo sapiens, UniProt Q92847); assay: BRET β-arr2 recruitment; type: cell-based
T1 construct: expressed in transfected cells; host or cells: HEK293/T, transient
T1 sequence (Q92847 whole entry): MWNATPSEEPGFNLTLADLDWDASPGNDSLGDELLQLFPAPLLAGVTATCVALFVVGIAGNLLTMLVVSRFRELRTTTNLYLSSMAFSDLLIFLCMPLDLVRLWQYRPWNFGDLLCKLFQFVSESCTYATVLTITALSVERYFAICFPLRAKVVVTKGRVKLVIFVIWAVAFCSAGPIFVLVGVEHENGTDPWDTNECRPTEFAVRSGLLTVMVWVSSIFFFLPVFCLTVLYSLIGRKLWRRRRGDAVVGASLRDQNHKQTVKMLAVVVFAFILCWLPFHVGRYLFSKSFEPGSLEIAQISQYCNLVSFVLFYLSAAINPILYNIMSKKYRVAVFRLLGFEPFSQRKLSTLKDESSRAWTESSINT
T1 sequence (P32121 whole entry partner): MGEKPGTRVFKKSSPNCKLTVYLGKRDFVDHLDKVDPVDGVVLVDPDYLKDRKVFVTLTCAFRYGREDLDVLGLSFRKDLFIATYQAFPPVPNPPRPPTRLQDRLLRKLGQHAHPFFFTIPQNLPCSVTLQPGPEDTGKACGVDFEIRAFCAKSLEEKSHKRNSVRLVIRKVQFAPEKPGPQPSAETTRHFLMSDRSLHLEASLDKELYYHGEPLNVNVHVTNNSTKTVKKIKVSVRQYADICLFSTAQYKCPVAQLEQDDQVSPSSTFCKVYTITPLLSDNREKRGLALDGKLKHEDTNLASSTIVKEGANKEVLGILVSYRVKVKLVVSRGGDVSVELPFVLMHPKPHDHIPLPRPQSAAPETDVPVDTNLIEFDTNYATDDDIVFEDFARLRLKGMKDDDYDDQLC
Method: The morning after transfection, media was exchanged and after 4-6 hours, cells were then plated on white 96-well, clear-bottomed assay plates at a density of 45,000 cells/well in opti-MEM supplemented with 2% FBS and antibiotic/antimycotic. The following morning, opti-MEM was removed and cells were incubated with 70-80 μL HBSS supplemented with 20 mM HEPES (pH 7.4) for 4 hours. Cells were then treated with 10 μL of coelenterazine H (5 μM final) for 5-10 minutes at room temperature.

human GHSR1a^WT (Gαq) = human GHSR1a^WT (Gαq) (Homo sapiens, UniProt Q92847); assay: NanoBiT Gαq dissociation/activation; type: cell-based; parameters: HEK293/T (transient); HEK293S Gαq knockout (transient, NanoBiT Gαq)
Sequence of human GHSR1a^WT (Gαq) (Q92847 whole entry): as the sequence (Q92847 whole entry) above

GHSR1a^E197A = molecular target: T2, GHSR1a^E197A (Homo sapiens, UniProt Q92847, E197A); assay: iCa2+ at E197A mutant; type: cell-based
T2 construct: expressed in transfected cells; host or cells: HEK293/T
T2 sequence (Q92847 whole entry E197A): as the sequence (Q92847 whole entry) above, with E197A counted along it
Method: (§1) For experiments with WT and Gt KO HEK293/S cells, […] of hGHSR1a^WT, 10 μg of miAEQ, and 2.5 μg of pcDNA3.1 was transiently transfected into 10 cm dishes and incubated overnight. […] Twenty-four hours later, experiments proceeded in accordance with the procedures described above. To control for any possible kinetic differences in genetically modified cell lines or GHSR1a variants, the average ligand-induced response over 10 seconds was calculated, then normalized by dividing the L-miAeq by the L-miAeq plus the Lysis-miAeq and normalized to the appropriate control/reference condition.

[2] = molecular target: T3, hGHSR1a^WT-LgBiT / SmBiT-β-arr2 (Homo sapiens, UniProt Q92847); assay: NanoBiT β-arr2 recruitment; type: cell-based
T3 construct: expressed in transfected cells; host or cells: HEK293/T, transient
T3 sequence (Q92847 whole entry): as the sequence (Q92847 whole entry) above
T3 sequence (P32121 whole entry partner): as the sequence (P32121 whole entry partner) above
Method: β-arr2 recruitment: In agonist and antagonist assays of NanoBiT-based β-arr2 recruitment, hGHSR1a^WT-Lg^BiT and ^SmBiT-β^WT were transiently co-transfected at a 1:1 ratio (250 μg each) into monolayers of HEK293/T cells on 6-well plates along with 2 μg of pcDNA3.1. For assays employing the Ala204Glu variant, hGHSR1a^A204E-Lg^BiT was transfected at 2×hGHSR1a^WT-Lg^BiT, as performed for iCa^2+ assays with hGHSR1a^A204E described above. For GHSR1a-β-arr2 saturation assays, a fixed amount of hGHSR1a^WT-Lg^BiT cDNA (250 μg) was transfected with 0, 62.5 (1:0.25), 125 (1:0.5), 250 (1:1), 500 (1:2), or 1000 (1:4) μg of ^SmBiTβ-arr^WT. The morning after transfection, media was exchanged and after 4-6 hours, cells were then plated on white 96-well, clear-bottomed assay plates at a density of 45,000 cells/well in opti-MEM supplemented with 2% FBS and antibiotic/antimycotic. The following morning, opti-MEM was removed and cells were incubated with 70-80 μL HBSS supplemented with 20 mM HEPES (pH 7.4) for 4 hours. Cells were then treated with 10 μL of coelenterazine H (5 μM final) for 15-20 minutes at room temperature. Cells were then stimulated with 10 μL of test compounds and 2 minutes later, luminescence was measured over 5 minutes, which encompassed the peak β-arr2 recruitment signal.

GHSR1a^N305A [3] = molecular target: T4, GHSR1a^N305A (Homo sapiens, UniProt Q92847, N305A); assay: iCa2+ at N305A mutant; type: cell-based
T4 construct: expressed in transfected cells; host or cells: HEK293/T
T4 sequence (Q92847 whole entry N305A): as the sequence (Q92847 whole entry) above, with N305A counted along it
Method: as §1

GPCRome (320 receptors) = assay: PRESTO-Tango GPCRome β-arr2 recruitment screen, other receptors; type: cell-based; conditions: N8279 1 μM; hit >3-fold
Method: Hits were defined as >3-fold activation above baseline. […] The assay quality was assessed by plotting duplicate, independent trial averages (derived from 4 independent wells) for each receptor as a point (X,Y). The corresponding plot of points for an ideal assay were fit by a regression line with the slope=1.

[4] = Pharmacokinetic analysis in C57BL/6 mice
Method: Pharmacokinetic Analysis. Male C57BL/6 mice were used for pharmacokinetic studies and were purchased from Charles River Laboratories. DAT KO mice were backcrossed for >10 generations onto a C57BL/6J (Jackson Laboratory, Bar Harbor, ME) genetic background. Mice were bred and maintained on a standard 12:12 hour light:dark cycle, socially housed, and supplied with standard laboratory chow and water ad libitum, except during testing. […] Plasma, brain and liver samples were collected over 24 hours. […] The mean concentration from 3 animals at each time-point was used in the pharmacokinetic (PK) analysis. PK parameters were calculated with Phoenix WinNonlin Software (Ver. 8.0, Certara).

hGHSR1a^WT = hGHSR1a^WT (Homo sapiens, UniProt Q92847); assay: Fixed-cell ELISA GHSR1a internalization; type: cell-based; parameters: expressed in transfected cells; HEK293/S Gαq/11 KO and parental WT (iCa2+); conditions: 45 minutes at 37° C.
Sequence of hGHSR1a^WT (Q92847 whole entry): as the sequence (Q92847 whole entry) above
Method: Chemiluminescent Fixed-Cell ELISA. […] The next morning, media was removed and cells were serum starved with 90 μL of opti-MEM (containing no serum) for 2-3 hours at 37° C. Cells were then stimulated with 10× test compounds (diluted in serum-free opti-MEM) for 45 minutes at 37° C. in a humidified incubator. After 45 minutes, cells were fixed with 4% paraformaldehyde for 15 minutes (RT). Fixed cells were then washed three times with PBS (pH 7.4, Gibco) and blocked with fish gelatin in TBS (Rockland, Gilbertsville, PA) for 45 minutes. Cells were then incubated with a rabbit, horseradish peroxidase (HRP)-conjugated anti-HA antibody (1:2, 500; Novus Biologicals, Littleton, CO) for 1 hour (RT). […] The average luminescence was used and the data for each ligand were normalized its corresponding vehicle treatment conditions.

GHSR1a^R199A = molecular target: T5, GHSR1a^R199A (Homo sapiens, UniProt Q92847, R199A); assay: Gαq dissociation and iCa2+ at R199A mutant; type: cell-based
T5 construct: expressed in transfected cells; host or cells: HEK293/T
T5 sequence (Q92847 whole entry R199A): as the sequence (Q92847 whole entry) above, with R199A counted along it
Method: as §1

hGHSR1a^A204E = hGHSR1a^A204E (Homo sapiens, UniProt Q92847, A204E); assay: cell-based; conditions: read-out: Gαq dissociation maximal efficacy decrease at GHSR1a^A204E
Sequence of hGHSR1a^A204E (Q92847 whole entry A204E): as the sequence (Q92847 whole entry) above, with A204E counted along it
Method: BRET-based Gαq Dissociation & β-arr2 Recruitment Assays. TRUPATH Gα dissociation: Gαq/i1/i2/OA/12/13/sS^RLuc8 and Gγ8^GFP2 or Gγ9^GFP2 were transiently co-transfected with human 3×HA-GHSR1a^WT and untagged Gβ3 at a 1:1:1:1 ratio (100 μg each) into monolayers of HEK293/T cells along with 1.6 μg pcDNA3.1. The next morning, media (DMEM supplemented with 10% FBS and antibiotic/antimycotic) was exchanged and after 4-6 hours, cells were plated on white 96-well, clear-bottomed assay plates at a density of 40,000-50,000 cells/well in opti-MEM supplemented with 2% FBS and antibiotic/antimycotic. The next morning, opti-MEM was removed and cells were incubated with 80 μL HBSS supplemented with 20 mM HEPES (pH 7.4) for 4 hours. Cells were then treated with 10 μL of the luminescent substrate, coelenterazine 400a (5 μM final), for 5 minutes at room temperature prior to the addition of 10 μL of test compound. Five minutes after ligand application, luminescence was measured by a Mithras 940 plate reader over 30 minutes and the maximal response was utilized for generating all C/R curves.

hGHSR1a^D99A = molecular target: T6, hGHSR1a^D99A (Homo sapiens, UniProt Q92847, D99A); assay: Gαq dissociation (TRUPATH) and iCa2+ at D99A mutant; type: cell-based; conditions: surface expression reduced markedly
T6 construct: expressed in transfected cells; host or cells: HEK293/T, transient
T6 sequence (Q92847 whole entry D99A): as the sequence (Q92847 whole entry) above, with D99A counted along it
Method: as §1

GHSR1a = GHSR1a (Homo sapiens, UniProt Q92847); assay: Bias factor, intrinsic relative activities (RAi) model, Gαq vs β-arr2; parameters: expressed in transfected cells; host or cells: HEK293/T and HEK293/N (the source assays)
Sequence of GHSR1a (Q92847 whole entry): as the sequence (Q92847 whole entry) above
Description: To quantitatively assess N8279 bias between the Gαq and β-arr2 (FIG. 2A) pathways, the intrinsic relative activities (RAi) model was used. […] Ultimately, these analyses together supported that N8279 was a G protein-biased agonist of both proximal and downstream GHSR1a-Gαq signaling.

GHSR1a^N305A [5] = molecular target: T4, GHSR1a^N305A; assay: TRUPATH Gαq dissociation at N305A mutant; type: cell-based
[6] = 5 minute pretreatment, ghrelin 40 nM

Structure (SMILES): COc1ccc(C(=O)c2c(C(=O)NCCCN(C)C)oc3ccc(Cl)cc3c2=O)cc1OC [Example N8279, 6-Chloro-3-(3,4-dimethoxybenzoyl)-N-(3-(dimethylamino)propyl)-4-oxo-4H-chromene-2-carboxamide]
- BRET β-arr2 recruitment, fold less potent than ghrelin [1]: ~100 fold
- Gαq activation Emax (NanoBiT) (human GHSR1a^WT (Gαq)): 118.3±9.8
- iCa2+ potency reduction at GHSR1a^E197A (GHSR1a^E197A): ~3 fold
- NanoBiT β-arr2 recruitment, fold less potent than L585 [2]: ~43 fold
- NanoBiT β-arr2 recruitment, fold less potent than ghrelin [2]: ~20 fold
- inhibition of EC80 ghrelin-induced β-arr2 recruitment in words [2, 6]: significantly, but incompletely
- inhibition of EC80 ghrelin-induced β-arr2 recruitment, fold less potent than JMV2959 [2, 6]: 1.7 fold
- inhibition of EC80 ghrelin-induced β-arr2 recruitment, fold less potent than YIL781 [2, 6]: 2.9 fold
- relative affinity (BiTd) of β-arr2 for GHSR1a, fold weaker than in ghrelin-treated cells ([2]; saturation, N8279 100-200 nM vs ghrelin 100 nM): 22.5 fold
- iCa2+ potency reduction at GHSR1a^N305A (GHSR1a^N305A [3]): 6.5 fold
- activation above baseline at any other GPCR (GPCRome (320 receptors)): ≤ 3 fold
- brain:plasma ratio ([4]; IP): 0.6-0.9
- AUCextrap ([4]; IP 5 mg/kg, brain): 7.1%
- AUC ratio (tissue/plasma) ([4]; IP 5 mg/kg, brain/plasma): 0.6
- AUCextrap ([4]; IP 5 mg/kg, liver): 0.1%
- AUC ratio (tissue/plasma) ([4]; IP 5 mg/kg, liver/plasma): 49
- AUCextrap ([4]; IP 5 mg/kg, plasma): 0.6%
- AUCextrap ([4]; IV 1 mg/kg, brain): 10%
- AUC ratio (tissue/plasma) ([4]; IV 1 mg/kg, brain/plasma): 0.8
- AUCextrap ([4]; IV 1 mg/kg, liver): 0.2%
- AUC ratio (tissue/plasma) ([4]; IV 1 mg/kg, liver/plasma): 40
- AUCextrap ([4]; IV 1 mg/kg, plasma): 2.4%
- AUCextrap ([4]; PO 5 mg/kg, brain): 24%
- AUC ratio (tissue/plasma) ([4]; PO 5 mg/kg, brain/plasma): 0.9
- AUCextrap ([4]; PO 5 mg/kg, liver): 0.1%
- AUC ratio (tissue/plasma) ([4]; PO 5 mg/kg, liver/plasma): 77
- AUCextrap ([4]; PO 5 mg/kg, plasma): 11%
- brain half-life (t1/2) after IP and PO administration ([4]; brain, IP and PO 5 mg/kg): 6.6 to 11 h
- bioavailability ([4]; male, C57BL/6, mouse, in vivo, ip, 5 mg/kg): 27%
- AUC(0-t) ([4]; male, C57BL/6, mouse, liver, iv, 1 mg/kg): 57.1 µg·h/mL
- Cmax ([4]; read-out: peak concentration (Cmax) in brain, IP 5 mg/kg, brain): 0.259 µM
- internalization efficacy reduction relative to ghrelin (ELISA) (hGHSR1a^WT): ~30%
- internalization potency reduction relative to ghrelin (ELISA) (hGHSR1a^WT): 24 fold
- potency at GHSR1a^R199A in words (GHSR1a^R199A): did not affect
- Emax (hGHSR1a^A204E): ~45%
- signaling at GHSR1a^D99A in words (hGHSR1a^D99A): abolished
- downstream bias (GHSR1a; reference L585): ~14 fold
- downstream bias factor (β) (GHSR1a; reference L585): 1.15
- proximal bias (GHSR1a; reference L585): ~28 fold
- proximal bias factor (β) (GHSR1a; reference L585): 1.45
- assay-standardized proximal bias factor (β), BRET-Gαq/BRET-β-arr2 (GHSR1a; reference ghrelin): 1.16±0.11 and 1.16
- assay-standardized proximal bias factor (β), NanoBiT-Gαq/NanoBiT-β-arr2 (GHSR1a; reference ghrelin): 1.36±0.33 and 1.36
- assay-standardized proximal bias, BRET-Gαq/BRET-β-arr2 (GHSR1a; reference ghrelin): ~14 fold
- assay-standardized proximal bias, NanoBiT-Gαq/NanoBiT-β-arr2 (GHSR1a; reference ghrelin): ~23 fold
- downstream bias factor (β), iCa2+ vs NanoBiT β-arr2 (GHSR1a; reference ghrelin): 2.63
- downstream bias, iCa2+ vs NanoBiT β-arr2 (GHSR1a; reference ghrelin): ~427 fold
- proximal bias factor (β), Gαq dissociation vs NanoBiT β-arr2 (GHSR1a; reference ghrelin): 0.59
- proximal bias, Gαq dissociation vs NanoBiT β-arr2 (GHSR1a; reference ghrelin): ~4 fold
- Gαq dissociation at GHSR1a^N305A in words (GHSR1a^N305A [5]): reduced dramatically
